Measured values: the supplement of paper PMC10307832

Key:
Assay in all cases: relative viability (nuclei count vs DMSO), 5 days (fraction); higher = more cells survive
[1] = system: SK-MES-1
Outline: (§1)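 Lung cancer cell lines were seeded in 1536-well plates and dosed by pin tool the next day, with either a single drug or a fixed anchor-drug dose combined with five library-drug doses (not always all listed) spaced in √10 steps. Five days later, one step fixed the cells and stained their nuclei (final 0.05% Triton X-100, 1% formaldehyde, 1 ug/ml Hoechst), and nuclei were counted on 4× images. Relative viability is the nuclei count in treated wells divided by the count in vehicle wells, and each value is the median of duplicate plates.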

[2] = system: COR-L23
Outline: as §1

[3] = system: SW 1573
Outline: as §1

[4] = system: SK-LU-1
Outline: as §1

[5] = system: NCI-H3122
Outline: as §1

[6] = system: NCI-H1793
Outline: as §1

[7] = system: ABC-1
Outline: as §1

[8] = system: HOP-62
Outline: as §1

[9] = system: NCI-H1993
Outline: as §1

[10] = system: SW 900
Outline: as §1

[11] = system: LK-2
Outline: as §1

[12] = system: NCI-H2170
Outline: as §1

[13] = system: NCI-H2009
Outline: as §1

[14] = system: PC-3 [JPC-3]
Outline: as §1

[15] = system: NCI-H1792
Outline: as §1

[16] = system: A-427
Outline: as §1

[17] = system: NCI-H2228
Outline: as §1

[18] = system: LXF-289
Outline: as §1

[19] = system: HARA
Outline: as §1

[20] = system: NCI-H596
Outline: as §1

[21] = system: NCI-H727
Outline: as §1

[22] = system: NCI-H1944
Outline: as §1

[23] = system: EMC-BAC-2
Outline: as §1

CC1(C)CCC(c2ccc(Cl)cc2)=C(CN2CCN(c3ccc(C(=O)NS(=O)(=O)c4ccc(N[C@H](CCN5CCOCC5)CSc5ccccc5)c(S(=O)(=O)C(F)(F)F)c4)cc3)CC2)C1 [Navitoclax] + Cc1nc(Nc2ncc(C(=O)Nc3c(C)cccc3Cl)s2)cc(N2CCN(CCO)CC2)n1 [Dasatinib] (partner 0.075 µM)
relative viability ([1]; first compound 0.005 µM): 0.324
relative viability ([1]; first compound 0.01581 µM): 0.466
relative viability ([1]; first compound 0.05 µM): 0.395
relative viability ([1]; first compound 0.1581 µM): 0.393
relative viability ([1]; first compound 0.5 µM): 0.43
relative viability ([2]; first compound 0.005 µM): 0.509
relative viability ([2]; first compound 0.01581 µM): 0.595
relative viability ([2]; first compound 0.05 µM): 0.521
relative viability ([2]; first compound 0.1581 µM): 0.447
relative viability ([2]; first compound 0.5 µM): 0.556
relative viability ([3]; first compound 0.005 µM): 0.522
relative viability ([3]; first compound 0.01581 µM): 0.699
relative viability ([3]; first compound 0.05 µM): 0.637
relative viability ([3]; first compound 0.1581 µM): 0.482
relative viability ([3]; first compound 0.5 µM): 0.459
relative viability ([4]; first compound 0.005 µM): 0.182
relative viability ([4]; first compound 0.01581 µM): 0.169
relative viability ([4]; first compound 0.05 µM): 0.193
relative viability ([4]; first compound 0.1581 µM): 0.203
relative viability ([4]; first compound 0.5 µM): 0.0932
relative viability ([5]; first compound 0.005 µM): 0.72
relative viability ([5]; first compound 0.01581 µM): 0.838
relative viability ([5]; first compound 0.05 µM): 0.904
relative viability ([5]; first compound 0.1581 µM): 0.821
relative viability ([5]; first compound 0.5 µM): 0.682
relative viability ([6]; first compound 0.005 µM): 0.409
relative viability ([6]; first compound 0.01581 µM): 0.325
relative viability ([6]; first compound 0.1581 µM): 0.293
relative viability ([6]; first compound 0.5 µM): 0.147
relative viability ([7]; first compound 0.005 µM): 0.588
relative viability ([7]; first compound 0.01581 µM): 0.644
relative viability ([7]; first compound 0.05 µM): 0.49
relative viability ([7]; first compound 0.1581 µM): 0.555
relative viability ([7]; first compound 0.5 µM): 0.61
relative viability ([8]; first compound 0.005 µM): 0.593
relative viability ([8]; first compound 0.01581 µM): 0.752
relative viability ([8]; first compound 0.05 µM): 0.623
relative viability ([8]; first compound 0.1581 µM): 0.719
relative viability ([8]; first compound 0.5 µM): 0.678
relative viability ([9]; first compound 0.005 µM): 0.674
relative viability ([9]; first compound 0.01581 µM): 0.689
relative viability ([9]; first compound 0.05 µM): 0.467
relative viability ([9]; first compound 0.1581 µM): 0.625
relative viability ([9]; first compound 0.5 µM): 0.643
relative viability ([10]; first compound 0.005 µM): 0.504
relative viability ([10]; first compound 0.01581 µM): 0.537
relative viability ([10]; first compound 0.05 µM): 0.475
relative viability ([10]; first compound 0.1581 µM): 0.8
relative viability ([10]; first compound 0.5 µM): 0.42
relative viability ([11]; first compound 0.005 µM): 0.319
relative viability ([11]; first compound 0.01581 µM): 0.368
relative viability ([11]; first compound 0.05 µM): 0.309
relative viability ([11]; first compound 0.1581 µM): 0.202
relative viability ([11]; first compound 0.5 µM): 0.37
relative viability ([12]; first compound 0.005 µM): 0.557
relative viability ([12]; first compound 0.01581 µM): 0.528
relative viability ([12]; first compound 0.05 µM): 0.397
relative viability ([12]; first compound 0.1581 µM): 0.595
relative viability ([12]; first compound 0.5 µM): 0.574
relative viability ([13]; first compound 0.005 µM): 0.232
relative viability ([13]; first compound 0.01581 µM): 0.383
relative viability ([13]; first compound 0.05 µM): 0.264
relative viability ([13]; first compound 0.1581 µM): 0.336
relative viability ([13]; first compound 0.5 µM): 0.319
relative viability ([14]; first compound 0.005 µM): 1.02
relative viability ([14]; first compound 0.01581 µM): 1.07
relative viability ([14]; first compound 0.05 µM): 0.773
relative viability ([14]; first compound 0.1581 µM): 0.97
relative viability ([14]; first compound 0.5 µM): 0.858
relative viability ([15]; first compound 0.005 µM): 0.717
relative viability ([15]; first compound 0.01581 µM): 0.914
relative viability ([15]; first compound 0.05 µM): 0.64
relative viability ([15]; first compound 0.1581 µM): 0.782
relative viability ([15]; first compound 0.5 µM): 0.79
relative viability ([16]; first compound 0.005 µM): 0.784
relative viability ([16]; first compound 0.01581 µM): 0.694
relative viability ([16]; first compound 0.05 µM): 0.71
relative viability ([16]; first compound 0.1581 µM): 0.734
relative viability ([16]; first compound 0.5 µM): 0.643
relative viability ([17]; first compound 0.005 µM): 0.519
relative viability ([17]; first compound 0.01581 µM): 0.525
relative viability ([17]; first compound 0.1581 µM): 0.592
relative viability ([17]; first compound 0.5 µM): 0.517
relative viability ([18]; first compound 0.005 µM): 0.239
relative viability ([18]; first compound 0.01581 µM): 0.308
relative viability ([18]; first compound 0.05 µM): 0.193
relative viability ([18]; first compound 0.1581 µM): 0.256
relative viability ([18]; first compound 0.5 µM): 0.201
relative viability ([19]; first compound 0.005 µM): 0.308
relative viability ([19]; first compound 0.01581 µM): 0.277
relative viability ([19]; first compound 0.1581 µM): 0.29
relative viability ([19]; first compound 0.5 µM): 0.242
relative viability ([20]; first compound 0.005 µM): 0.734
relative viability ([20]; first compound 0.01581 µM): 0.68
relative viability ([20]; first compound 0.1581 µM): 0.603
relative viability ([20]; first compound 0.5 µM): 0.438
relative viability ([21]; first compound 0.01581 µM): 0.364
relative viability ([21]; first compound 0.1581 µM): 0.365
relative viability ([21]; first compound 0.5 µM): 0.347
relative viability ([22]; first compound 0.005 µM): 0.235
relative viability ([22]; first compound 0.01581 µM): 0.235
relative viability ([22]; first compound 0.05 µM): 0.268
relative viability ([22]; first compound 0.1581 µM): 0.282
relative viability ([22]; first compound 0.5 µM): 0.398
relative viability ([23]; first compound 0.005 µM): 0.29
relative viability ([23]; first compound 0.01581 µM): 0.354
relative viability ([23]; first compound 0.05 µM): 0.312
relative viability ([23]; first compound 0.1581 µM): 0.267
relative viability ([23]; first compound 0.5 µM): 0.288
